Read-outs that look alike come from different tables or passages of the source.
Target: T1, Pancreatic lipase (from porcine pancreas, type II) (Sus scrofa, UniProt P00591)
T1 construct: Pancreatic lipase (from porcine pancreas, type II, 100-500 units/mg, L3126); purchased Sigma-Aldrich L3126; host or cells: porcine pancreas (tissue-derived)
T1 sequence (P00591 1-450): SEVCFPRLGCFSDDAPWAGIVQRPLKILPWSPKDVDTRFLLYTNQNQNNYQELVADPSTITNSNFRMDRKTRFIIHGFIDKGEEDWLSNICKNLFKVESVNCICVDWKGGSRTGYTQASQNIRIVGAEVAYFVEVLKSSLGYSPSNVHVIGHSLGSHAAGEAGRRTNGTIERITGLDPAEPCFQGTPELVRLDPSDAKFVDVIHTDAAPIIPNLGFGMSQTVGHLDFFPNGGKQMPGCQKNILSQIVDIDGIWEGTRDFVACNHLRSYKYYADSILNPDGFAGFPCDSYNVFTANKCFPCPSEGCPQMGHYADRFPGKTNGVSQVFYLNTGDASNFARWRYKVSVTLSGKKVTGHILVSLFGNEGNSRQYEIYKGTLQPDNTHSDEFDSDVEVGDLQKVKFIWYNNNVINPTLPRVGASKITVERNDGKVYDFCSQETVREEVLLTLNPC
Assay: Pancreatic lipase (PL) inhibitory activity assay using pNPP as substrate
Type: biochemical
Method: Pancreatic Lipase Activity Assay Preparation The pancreatic lipase activity assay uses 4-nitrophenyl palmitate (pNPP) as colorimetric lipase substrate. […] Tris-Borate-EDTA buffer (10X, pH 8.3, PB 1040) was purchased from Vivantis Technologies (Selangor, Malaysia).
Buffer solution was prepared by diluting the 10X Tris-Borate-EDTA buffer (890 mM) into 50 mM solution, followed by addition of 0.35% (m/v) sodium deoxycholate, and adjust pH to 8.3. pNPP solution was prepared by adding pNPP into isopropanol to make a 1.5 mg/mL solution. Both solutions were stored in fridge (4° C.) for further tests. PL solution was prepared by suspending PL in 4° C. buffer solution (10 mg/mL), shaking by vortex mixer for 2 min, and centrifuging at 4° C., 6000 rpm for 5 min. The supernatant was divided into several 0.5 mL aliquots in 0.6 mL PP centrifuge tubes and stored in freezer (-18° C.) for further tests.
High-throughput Pancreatic Lipase Activity Assay. For each sample, 20 µL of extract was transferred into a 0.6 mL PP centrifuge tube, dry up at room temperature for 10 min, followed by adding 300 µL buffer solution. The mixture was sonicated thoroughly in water bath sonicator, 150 µL of the sample was transferred onto a 96-well microplate (Corning, clear polystyrene, USA), and incubated in microplate reader (Synergy HT, Biotek Instruments Inc., Winooski, VT, USA) at 37° C. for 15 min. Meanwhile, frozen lipase solution was thawed in room temperature, 10 µL of which was added into the well, and incubate at 37° C. for another 10 min. Finally, the reaction starts by adding 10 µL pNPP solution into each well. The reading wavelength was fixed at 410 nm, 3 s shaking before each reading, and a 1-hour kinetic data was obtained by a reading interval of 20 or 60 seconds. Negative control group (blank) was prepared by adding 20 µL pure solvent instead of extract in the first step.
The tendency of readings in the first 3 minutes were regarded as linear growth, and the slope was calculated by linear regression in Excel (Office 2016, Microsoft, USA). The inhibition activity of each sample is calculated in percentage inhibition by Eq. 1.
Comparator PL Inhibitory Assay (pNPP as substrate). p-Nitrophenyl palmitate (pNPP) is a synthetic chemical probe widely used in PL inhibitory assay. Long chain fatty acid (palmitic acid) and chromatic indicator (p-nitrophenol) are linked by an ester bond, and the molecule works as a substrate of PL. Hydrolyzed by PL in buffer solution, pNPP molecules release the indicators, and a yellowish color is presented. PL activity is indicated by the speed of color gain by time, and the color could be measured by optical density at 410 nm by a spectrometer. […] According to Michaelis-Menten equation, PL activity could be presented by the initial rate of the reaction. […] The inhibition is calculated percentage by Eq.1, and a dose-response curve could be plotted according to PL inhibition under different inhibitor concentrations (FIG. 1B). Fitting with proper model, IC50 could be calculated by plugging 50% into the fitted formula.

[1] = isolated resin glycosides of sweet potato tuber, read-out: PL inhibition IC50
[2] = lipase inhibition, resin glycosides in fraction F5.1.23.34 of sweet potato tuber, read-out: IC50
[3] = lipase inhibition, resin glycosides in fraction F5.1.23.34 of sweet potato tuber, read-out: IC50 (µg/mL) (converted)
[4] = lipase inhibition, resin glycosides in fraction F5.1.23.34 of sweet potato tuber

IC50 [1] [µM]	IC50 [2] [µM]	IC50 [3] [µM]	IC50 (µg/mL) [4] [µg/mL]	Molecule
4.9 to 6.7	4.9	4.91		CCCCC[C@H]1CCCCCCCCCC(=O)O[C@H]2[C@H](O[C@H]3[C@H](O1)O[C@H](C)[C@H](O)[C@@H]3O)O[C@@H](C)[C@H](O[C@@H]1O[C@@H](C)[C@H](O[C@@H]3O[C@@H](C)[C@H](OC(=O)[C@@H](C)CC)[C@@H](OC(=O)/C=C/c4ccccc4)[C@H]3O)[C@@H](O[C@@H]3O[C@@H](C)[C@H](O)[C@@H](O)[C@H]3O)[C@H]1OC(=O)[C@@H](C)CC)[C@H]2O [Batatoside III]
	6.7		8.5	Batataoside I
	6		7.6	Batataoside II
4.9 to 6.7	5.6	5.61		CCCCCC1CCCCCCCCCC(=O)OC2C(O)C(OC(C)C2OC2OC(C)C(OC3OC(C)C(OC(=O)C(C)CC)C(OC(=O)C=Cc4ccccc4)C3O)C(OC3OC(C)C(O)C(O)C3O)C2OC(=O)C(C)CC)OC2C(O1)OC(C)C(O)C2O (stereo not shown) [Pescaprein XXVII]
